Test results taken from patent US20230382926A1, “COMPOUNDS AND USES THEREOF” (The University of The West Indies, priority 2022, published 2023).

Columns and labels:
[1] = system: Multidrug resistant Pseudomonas aeruginosa; test: Broth microdilution minimum inhibitory concentration; type: cell-based; details: compound alone
Description: (§1) Antibacterial activity of the synthesized compounds was determined following guidelines established by the Clinical and Laboratory Standards Institute M07-A10 (CLSI 2015), following the broth microdilution method. Briefly, the test articles were dissolved in 100% DMSO, diluted by 2-fold serial titrations in the same vehicle (100% DMSO), for a total of 11 concentrations. A 4 μL aliquot of each dilution was then added to 196 μL of broth medium seeded with the bacterial suspension in wells of a 96 well plate (bacterial count: 2×10^5 to 8×10^5 colony forming units/mL final). The highest test substance concentration was 1028 μg/mL, and the final vehicle concentration was 2 percent. Following incubation, the test plate was visually examined, and each well was scored for growth or complete inhibition of growth. The minimum inhibitory concentration was determined as the lowest concentration were no growth of the bacterial was observed. Each test article was assayed in duplicate.

[2] = system: Carbapenem resistant Acinetobacter baumannii; test: as above; type: cell-based; details: compound alone
Description: as §1

[3] = system: Carbapenem resistant Klebsiella pneumoniae; test: as above; type: cell-based; details: compound alone
Description: as §1

[4] = system: Vancomycin resistant Enterococcus faecalis; test: as above; type: cell-based; details: compound alone
Description: as §1

[5] = system: Methicillin resistant Staphylococcus aureus; test: as above; type: cell-based; details: compound alone
Description: as §1

[6] = system: MRSA; test: Rescue concentration of substituted phenyl azaindole derivatives; type: cell-based, Staphylococcus aureus; details: Amoxicillin fixed at 2 μg/mL
Description: (§2) The antibiotic adjuvant activity of the SPazaBIMs were evaluated in combination with representative antibiotics (representing 13 antibiotic classes) against the 19 pathogens strains listed in Table 3. To assess the adjuvant properties of the SP-azaBIM molecules, a modified checkerboard minimum inhibitory concentration assay was used. A fixed concentration of the respective antibiotic (susceptible breakpoint concentration) was mixed with a twofold dilution series of the test SP-azaBIM (FIG. 1). This was to determine the concentration of SP-azaBIM needed potentiate the antibiotic at a clinically susceptible breakpoint concentration. Antibiotic susceptible breakpoint concentrations for the respective bacteria were determined using Clinical Laboratory Standards Institute (CLSI) criteria M100 ED31.
(§3) In this study, only those antibiotics to which the bacterial was classed as resistant were included in the adjuvant assays. In this assay we recorded the rescue concentration of the SP-BIM for a respective antibiotic. The rescue concentration was defined as the concentration of the adjuvant that reduces the minimum inhibitory concentration (MIC) of an antibiotic to the susceptibility breakpoint.
(§4) Immediately prior to testing, the respective antibiotic and SP-azaBIM was dissolved in sterile deionised water at 20× the required test concentration. Each microtiter well was then inoculated with 180 μl of bacterial inoculum of 10^6 CFU/ml in ca-MHB, and 10 μl each if the antibiotic and SP-azaBIM was added to the plates. These plates were then incubated at 35° C. for 24 h under aerobic conditions. A similar method was followed for the fastidious pathogens except that they were cultured in ca-MHB with 5% sheep blood and 5% CO2.
(§5) Bacterial growth was visually inspected after the incubation period and the rescue concentration of the test SP-azaBIM was determined as the lowest concentration of the compound needed to reduce bacterial growth by 99.99% at the susceptible breakpoint concentration of the antibiotic. For example, CLSI states that Pseudomonas aeruginosa is susceptible to the Imipenem if the MIC is ≤2 μg mL^−1. If the bacteria can tolerate this concentration in vitro, then the bacteria has an intermediate or absolute resistance toward that antibiotic. The goal was to determine the concentration of SP-azaBIM needed to cause P. aeruginosa death at 2 μg mL^−1 of Imipenem therefore restoring susceptibility of the bacteria to toward the antibiotic.
(§6) Phenyl azaindole compounds are also tested for their adjuvant activities and the method is shown in Example 39.

[7] = system: P. aeruginosa; test: as above; type: cell-based; details: Imipenem fixed at 1 μg/mL
Description: as §2, §3, §4
Bacterial growth was visually inspected after the incubation period and the rescue concentration of the test SP-azaBIM was determined as the lowest concentration of the compound needed to reduce bacterial growth by 99.99% at the susceptible breakpoint concentration of the antibiotic. […] If the bacteria can tolerate this concentration in vitro, then the bacteria has an intermediate or absolute resistance toward that antibiotic. […]
as §6

[8] = system: K. pneumoniae; test: as above; type: cell-based; details: for Rescue concentration, K. pneumoniae Ciprofloxacin (1 μg/mL): Ciprofloxacin fixed at 1 μg/mL; for Rescue concentration, K. pneumoniae Imipenem (1 μg/mL): Imipenem fixed at 1 μg/mL
Description: as §2, §3, §4, §5, §6

Row | MIC [1] [µg/mL] | MIC [2] [µg/mL] | MIC [3] [µg/mL] | MIC [4] [µg/mL] | MIC [5] [µg/mL] | SMILES | Rescue concentration, MRSA Amoxicillin (2 μg/mL) [6] [µg/mL] | Rescue concentration, P. aeruginosa Imipenem (1 μg/mL) [7] [µg/mL] | Rescue concentration, K. pneumoniae Ciprofloxacin (1 μg/mL) [8] [µg/mL] | Rescue concentration, K. pneumoniae Imipenem (1 μg/mL) [8] [µg/mL]
1 | < 1020 | < 1020 | < 1020 | < 1020 | < 1020 | Oc1ccc(C(c2c[nH]c3ncc(Cl)cc23)c2c[nH]c3ncc(Cl)cc23)cc1 [4OH-Bis 5Cl 7aza, 4-(bis(5-chloro-1H-pyrrolo[2,3-b]pyridin-3-yl)methyl)phenol] | 2 | <256 | <256 | <256
2 | < 1020 | < 1020 | < 1020 | < 1020 | < 1020 | OC(c1cccc(Br)c1)c1c[nH]c2cnccc12 (stereo not drawn) [Compound 3Br-6aza-OH, (3-bromophenyl)(1H-pyrrolo[2,3-c]pyridin-3-yl)methanol] | 1 | 32 | 4 | 4
3 | < 1020 | < 1020 | < 1020 | < 1020 | < 1020 | Oc1ccc(C(O)c2c[nH]c3ncc(F)cc23)cc1 (stereo not drawn) [4OH-5Fl-7aza-OH, 4-((5-fluoro-1H-pyrrolo[2,3-b]pyridin-3-yl)(hydroxy)methyl)phenol] | 16 | 256 | <256 | <256
4 | < 1020 | < 1020 | < 1020 | < 1020 | < 1020 | O=[N+]([O-])c1cccc(C(O)c2c[nH]c3c(Cl)nccc23)c1 (stereo not drawn) [3NO2-7Cl-6aza, (7-chloro-1H-pyrrolo[2,3-c]pyridin-3-yl)(3-nitrophenyl)methanol] | 32 | <256 | <256 | <256
5 | < 1020 | < 1020 | < 1020 | < 1020 | < 1020 | O=[N+]([O-])c1cccc(C(O)c2c[nH]c3c(Cl)nc(Br)cc23)c1 (stereo not drawn) [3NO2-5Br-7Cl-6aza-OH, (5-bromo-7-chloro-1H-pyrrolo[2,3-c]pyridin-3-yl)(3-nitrophenyl)methanol] | 16 | <256 | <256 | <256
6 | < 1020 | < 1020 | < 1020 | < 1020 | < 1020 | O=[N+]([O-])c1cccc(C(O)c2c[nH]c3cnccc23)c1 (stereo not drawn) [Compound 3NO2-6aza-OH, (3-nitrophenyl)(1H-pyrrolo[2,3-c]pyridin-3-yl)methanol] | 64 | <256 | 128 | 256
7 | < 1020 | < 1020 | < 1020 | < 1020 | < 1020 | O=[N+]([O-])c1ccc(C(O)c2c[nH]c3c(Cl)nccc23)cc1 (stereo not drawn) [4NO2-7Cl-6aza-OH, (7-chloro-1H-pyrrolo[2,3-c]pyridin-3-yl)(4-nitrophenyl)methanol] | 8 | <256 | <256 | <256
8 | < 1020 | < 1020 | < 1020 | < 1020 | < 1020 | Oc1ccc(C(O)c2c[nH]c3cnccc23)cc1 (stereo not drawn) [Compound 4OH-6aza-OH, 4-(hydroxy(1H-pyrrolo[2,3-c]pyridin-3-yl)methyl)phenol] | 32 | 256 | <256 | <256
9 | < 1020 | < 1020 | < 1020 | < 1020 | < 1020 | OC(c1ccc(Br)cc1)c1c[nH]c2cnc(Br)cc12 (stereo not drawn) [4Br-5Br-6aza-OH, (5-bromo-1H-pyrrolo[2,3-c]pyridin-3-yl)(4-bromophenyl)methanol] | 4 | <256 | <256 | <256
10 | < 1020 | < 1020 | < 1020 | < 1020 | < 1020 | Nc1ccc(C(O)c2c[nH]c3cnccc23)cc1 (stereo not drawn) [Compound 4NH2-6aza-OH, (4-aminophenyl)(1H-pyrrolo[2,3-c]pyridin-3-yl)methanol] | 8 | 128 | 64 | 16
11 | < 1020 | < 1020 | < 1020 | < 1020 | < 1020 | Nc1cccc(C(O)c2c[nH]c3cnccc23)c1 (stereo not drawn) [Compound 3NH2-6aza-OH, (3-aminophenyl)(1H-pyrrolo[2,3-c]pyridin-3-yl)methanol] | 8 | 32 | 64 | 32
12 | < 1020 | < 1020 | < 1020 | < 1020 | < 1020 | OC(c1ccc(Br)cc1)c1c[nH]c2ncc(Cl)cc12 (stereo not drawn) [4Br-5Cl-7aza-OH, (4-bromophenyl)(5-chloro-1H-pyrrolo[2,3-b]pyridin-3-yl)methanol] | 8 | 256 | 32 | 32
13 | < 1020 | < 1020 | < 1020 | < 1020 | < 1020 | O=[N+]([O-])c1ccc(C(O)c2c[nH]c3cnccc23)cc1 (stereo not drawn) [Compound 4NO2-6aza-OH, (4-nitrophenyl)(1H-pyrrolo[2,3-c]pyridin-3-yl)methanol] | 128 | <256 | 128 | 128
14 | < 1020 | < 1020 | < 1020 | < 1020 | < 1020 | Oc1ccc(C(O)c2c[nH]c3cnc(Cl)cc23)cc1 (stereo not drawn) [4OH-5Cl-6aza-OH, 4-((5-chloro-1H-pyrrolo[2,3-c]pyridin-3-yl)(hydroxy)methyl)phenol] | 16 | <256 | <256 | 256
